Read-outs that look alike come from different tables or passages of the source.
Columns and labels:
HIV = conditions: peptide without selenium, cited from earlier work
virus gp 120 and CD4 = virus gp 120 and CD4 (Human immunodeficiency virus type 1 group M subtype B, UniProt P04578); conditions: peptide without selenium; only observed at this relatively high concentration; cited from earlier work
PC-3 cells = type: cell-based
DU-145 cells = type: cell-based
normal prostate cells = type: cell-based
normal human lung cells = conditions: up to 10 μM

Which “inactivation of HIV” value (HIV-1; 10 μg/ml) does the source give for Se-TYICEVEDQKEE here?
The value was “over 95%”.

And the “concentration for 50% inactivation of HIV” value (HIV-1; 0.25 mM reduced glutathione)?
The value was 1 microgram per ml.

What about the “inhibition of cell infection” value (HIV-1; 0.006 micrograms per ml) of the same substance?
The value was “over 50%”.

What about the “inhibition of cell infection” value (HIV-1; 0.5 micrograms per ml) of the same substance?
The value was “over 99%”.

And the “inactivation of HIV virus” value (HIV-1; 10 micrograms per ml, 0.25 mM reduced glutathione, within 1 hour)?
The value was 95%.

What about the “concentration for 50% (half maximal) inactivation of HIV” value (HIV-1; 1 hour pre-incubation, 0.25 mM reduced glutathione) of the same substance?
The value was 1 µg/mL.

What about the “concentration of peptide that binds and inactivates HIV in one hour” value (HIV-1; one hour) of the same substance?
The value was 0.5 µg/mL.

And the IC50 (HIV-1; read-out: concentration for half maximal inactivation of virus, peptide in the medium during infection, after 100-fold dilution in culture medium)?
Its IC50 is 5.9 nM.

What about the IC50 (HIV-1; read-out: concentration for half maximal inactivation of virus, peptide during the 1 hour pre-incubation) of the same substance?
Its IC50 is 590 nM.

What about the “inactivation of HIV-1 (ability of infected cells to produce virus)” value (HIV-1; seleno-peptide 0.1 ug/ml, one hour with glutathione 250 uM) of the same substance?
The value was 95%.

What about the “increase in effectiveness at preventing infection by coupling selenium to the 12-mer peptide” value (HIV-1; versus peptide without selenium) of the same substance?
The value was 50 fold.

Which “effect of peptide without selenium on HIV” value (HIV-1; even at 100 μg/ml, the highest concentration tested) does the source give for “TYICEVEDQKEE [gp120-binding 12-mer peptide]” here?
Its value is “no significant effect”.

And the “effect of control peptide solution on HIV-1 inactivation” value (HIV-1; peptide without selenium)?
Its value is “no effect”.

And the “peptide concentration with 50% infection blocking activity” value (HIV; corresponds to 32 μM)?
The value was “about 50 μg/ml”.

What about the IC50 (HIV; read-out: peptide concentration with 50% infection blocking activity) of the same substance?
The IC50 was 32 µM.

And the “concentration at which an effect on the gp 120-CD4 interaction was observed” value (virus gp 120 and CD4)?
Its value is 457 micrograms per ml.

Which “concentration that kills the cells” value (PC-3 cells) does the source give for “selenium adduct of dihydrotesterone [SeDHT]” here?
Its value is “less than 10 micromolar”.

What about the “concentration that kills the cells” value (DU-145 cells) of the same substance?
Its value is “less than 10 micromolar”.

What about the sensitivity of cells (normal prostate cells) of the same substance?
Its sensitivity of cells is “sensitive”.

What about the sensitivity of cells (colorectal cancer cells) of the same substance?
Its sensitivity of cells is “Only the prostate cells are sensitive”.

What about the sensitivity of cells (normal human lung cells) of the same substance?
Its sensitivity of cells is “Only the prostate cells are sensitive”.
